Test results: patent US20220395553A1, “CXCR4 ANTAGONIST PEPTIDES” (COHBAR, INC., priority 2019, published 2022)
Square brackets hold non-standard residues; d marks the D form. Peptide text beside a SMILES is read from it.

Legend:
[1] = system: CXCR4/CXCL12 induced p-MEK; test: CXCR4/CXCL12 induced p-MEK in Jurkat cells (ELISA); assay type: cell-based, human; details: 5 nM CXCL12, 5 min
Protocol: The assay was performed following a protocol similar to that described by Peng, et al., Mol Cancer Ther., 14 480-90 (2015), incorporated herein by reference. […] Jurkat cells were resuspended in standard growth media (RPMI+GlutaMax media; Gibco/Thermo Fisher Scientific; Gaithersburg, Md.) containing 10% FBS and 1% penicillin/streptomycin. Assays were performed using fresh or conditioned media (media cultured overnight in presence of Jurkat cells) to resuspend cells at density of 2×10^6 cells/ml and […] of cell suspension was immediately placed in 1.7 ml microfuge tubes. […] Following the 5 min incubation, cells were centrifuged at 1000×g for 4 min at 4° C. The supernatant was removed and the cells were rinsed with 1 ml of HBSS containing calcium and magnesium. The HBSS was removed and the cells were immediately lysed in 150 l of lysis buffer included with Phospho-MEK1 (Ser217/221) Sandwich ELISA kit (Cell Signaling Technology; Danvers, Mass.); lysis buffer was supplemented with 1 m M PMSF (Millipore-Sigma; Saint Louis, Mo.) and Halt protease/phosphatase inhibitor cocktail (Thermo-Fisher; Waltham, Mass.) prior to use. The samples were then placed on ice for 10 min and vortexed periodically. Following the lysis step, the samples were centrifuged at 12,500 rpm for 10 min at 4° C. p-MEK expression in each of the samples was then measure using Phospho-MEK1 (Ser217/221) Sandwich ELISA kit according to manufacturer's instructions. Absorbance was measured using a Cytation 3 plate reader at […] (BioTek; Winooski, Vt.).

human CXCR4 [2] = target: T1, human CXCR4 (Homo sapiens, UniProt P61073); test: IC50 for inhibition of CXCR4 activation, β-Arrestin recruitment (Example 22); assay type: cell-based; parameters: host or cells: C2C12 (mouse myoblast) CXCR4 β-Arrestin PathHunter cell line
T1 sequence (P61073 whole entry): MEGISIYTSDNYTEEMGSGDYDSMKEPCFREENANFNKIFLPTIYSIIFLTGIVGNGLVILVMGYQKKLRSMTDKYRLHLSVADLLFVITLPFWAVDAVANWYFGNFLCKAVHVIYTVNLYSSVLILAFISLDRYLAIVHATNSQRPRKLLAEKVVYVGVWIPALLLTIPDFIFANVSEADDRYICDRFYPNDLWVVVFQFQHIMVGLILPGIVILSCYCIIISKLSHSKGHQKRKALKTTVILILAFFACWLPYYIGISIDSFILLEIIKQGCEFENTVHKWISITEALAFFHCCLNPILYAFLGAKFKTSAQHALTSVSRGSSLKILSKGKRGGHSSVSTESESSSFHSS
Protocol: The assay was run with the DiscoverX protocol. β-Arrestin recruitment assays were performed by Eurofins-DiscoverX (Fremont, Calif.) using C2C12 CXCR4 β-Arrestin cell line (co-expressing ProLink tagged human CXCR4 and Enzyme Acceptor tagged β-Arrestin) and PathHunter detection kit. Peptides were initially prepared as 1 mM stock in H2O and tested in ten (10)-step concentration response curves using 3-fold dilution steps with 1 μM as highest concentration; a concentration range of 1 μM-0.05 nM was tested. C2C12 CXCR4 β-Arrestin cells were seed onto 384-well plates in standard medium. […] At the end of the 90 min incubation period, β-Arrestin recruitment in response to various treatments was quantified using a chemiluminescent complementation reporter assay to measure association of tagged human […] (ProLink tag) and tagged β-Arrestin (Enzyme Acceptor tag).

human CXCR4 [3] = target: T1, human CXCR4; test: CXCR4/CXCL12 binding, HTRF format, single concentration (Example 23); parameters: host or cells: HEK293 (Tag-lite CXCR4 cells, frozen aliquots, transient expression); details: 15 nM CXCR4R fluorescent probe, 3 hours, HEK293 Tag-lite CXCR4 cells
Protocol: Peptides were initially prepared as 1 mM stock in H2O and tested at a final concentration of 400 nM. Following the manufacture's protocol, a frozen aliquot of Tag-lite CXCR4 cells was thawed and immediately seeded onto 384-well plates in TLB. Immediately following the addition of cells, 400 nM peptide (final concentration) in TLB was added to the appropriate well. Then 15 nM (final concentration; EC80) of CXCR4R fluorescent probe was added to each well to initiate the HTRF assay. The plates were covered in aluminum foil and left at room temperature for 3 hours. Following the 3 hour incubation period, the plates were removed from the incubator and fluorescence measured using a Cytation 1 plate reader using a HTRF filter cube ([…]; BioTek; Winooski, Vt.). According manufacture's instruction data reduction was performed by calculating the ratio of 665 nm signal (TRF of 665 nm excitation by 620 emission; amount of CXCR4R fluorescent probe bound to terbium labeled CXCR receptor)/620 nm signal (620 excitation by 330 nm light source; normalization factor for amount of terbium labeled CXCR4 receptor in well)×10,000.

Structure (SMILES) | IC50 (human CXCR4 [2]) | Percent Inhibition of CXCR4/CXCL12 Binding (400 nM peptide) (human CXCR4 [3]) | Percent Inhibition of CXCR4/CXCL12 Induced p-MEK (100 nM Test Article) ([1]; 100 nM test article) | Percent Inhibition of CXCR4/CXCL12 Induced p-MEK (1 μM Test Article) ([1]; 1 μM test article)
CC(C)C[C@H](NC(=O)[C@H](CO)NC(=O)[C@H](CO)NC(=O)[C@H](CCCNC(=N)N)NC(=O)[C@@H](NC(=O)[C@H](CO)NC(=O)[C@H](Cc1c[nH]cn1)NC(=O)[C@H](Cc1c[nH]cn1)NC(=O)[C@H](Cc1ccc(O)cc1)NC(=O)[C@H](CCCNC(=N)N)NC(=O)[C@H](CCCNC(=N)N)NC(=O)[C@@H](N)CC(C)C)C(C)C)C(=O)N[C@@H](CCC(=O)O)C(=O)N1CCC[C@H]1C(=O)N[C@@H](Cc1ccc(O)cc1)C(=O)N[C@H](C(=O)N[C@@H](CCCCN)C(=O)O)[C@@H](C)O [compound 63] (H-LRRYHHSVRSSLEPYTK-OH; N-terminus and C-terminus assumed) | 0.014 µM | 9% |  | 
CC(C)C[C@H](NC(=O)[C@H](CO)NC(=O)[C@H](CO)NC(=O)[C@H](CCCNC(=N)N)NC(=O)[C@@H](NC(=O)[C@H](CO)NC(=O)[C@H](CCC(N)=O)NC(=O)[C@H](Cc1c[nH]cn1)NC(=O)[C@H](Cc1ccc(O)cc1)NC(=O)[C@H](CCCNC(=N)N)NC(=O)[C@H](CCCNC(=N)N)NC(=O)[C@@H](N)CC(C)C)C(C)C)C(=O)N[C@@H](CCCNC(=N)N)C(=O)N1CCC[C@H]1C(=O)N[C@@H](Cc1ccc(O)cc1)C(=O)N[C@H](C(=O)N[C@@H](CCCCN)C(=O)O)[C@@H](C)O [compound 50] (H-LRRYHQSVRSSLRPYTK-OH; N-terminus and C-terminus assumed) | 0.121 µM | −5% |  | 
CC(C)C[C@H](NC(=O)[C@H](CO)NC(=O)[C@H](CO)NC(=O)[C@H](CCC(=O)O)NC(=O)[C@@H](C)NC(=O)[C@H](CO)NC(=O)[C@H](Cc1c[nH]cn1)NC(=O)[C@H](Cc1c[nH]cn1)NC(=O)[C@H](Cc1ccc(O)cc1)NC(=O)[C@H](CCCNC(=N)N)NC(=O)[C@H](CCCNC(=N)N)NC(=O)[C@@H](N)CC(C)C)C(=O)N[C@@H](CCCNC(=N)N)C(=O)N1CCC[C@H]1C(=O)N[C@@H](Cc1ccc(O)cc1)C(=O)N[C@H](C(=O)N[C@@H](CCCCN)C(=O)O)[C@@H](C)O [compound 64] (H-LRRYHHS[dA]ESSLRPYTK-OH; N-terminus and C-terminus assumed) | 0.014 µM | −6% |  | 
CC(C)C[C@H](NC(=O)[C@H](CO)NC(=O)[C@H](CO)NC(=O)[C@H](CCCNC(=N)N)NC(=O)[C@@H](NC(=O)[C@H](CO)NC(=O)[C@H](CC(N)=O)NC(=O)[C@H](Cc1c[nH]cn1)NC(=O)[C@H](Cc1ccc(O)cc1)NC(=O)[C@H](CCCNC(=N)N)NC(=O)[C@H](CCC(=O)O)NC(=O)[C@@H](N)CC(C)C)C(C)C)C(=O)N[C@@H](CCCNC(=N)N)C(=O)N1CCC[C@H]1C(=O)N[C@@H](Cc1ccc(O)cc1)C(=O)N[C@H](C(=O)N[C@@H](CCCCN)C(=O)O)[C@@H](C)O [compound 45] (H-LERYHNSVRSSLRPYTK-OH; N-terminus and C-terminus assumed) | 0.121 µM | 1% |  | 
CC(C)C[C@H](NC(=O)[C@H](CO)NC(=O)[C@H](CO)NC(=O)[C@H](CCCNC(=N)N)NC(=O)[C@@H](C)NC(=O)[C@H](CO)NC(=O)[C@H](CCC(N)=O)NC(=O)[C@H](Cc1c[nH]cn1)NC(=O)[C@H](Cc1ccc(O)cc1)NC(=O)[C@H](CCCNC(=N)N)NC(=O)[C@H](CCC(=O)O)NC(=O)[C@@H](N)CC(C)C)C(=O)N[C@@H](CCCNC(=N)N)C(=O)N1CCC[C@H]1C(=O)N[C@@H](Cc1ccc(O)cc1)C(=O)N[C@H](C(=O)N[C@@H](CCCCN)C(=O)O)[C@@H](C)O [compound 52] (H-LERYHQS[dA]RSSLRPYTK-OH; N-terminus and C-terminus assumed) | 0.121 µM | −2% |  | 

These reach a lower IC50 (human CXCR4 [2]). Values come first.

IC50 (human CXCR4 [2]) | Percent Inhibition of CXCR4/CXCL12 Binding (400 nM peptide) (human CXCR4 [3]) | Structure (SMILES) | Percent Inhibition of CXCR4/CXCL12 Induced p-MEK (100 nM Test Article) ([1]; 100 nM test article) | Percent Inhibition of CXCR4/CXCL12 Induced p-MEK (1 μM Test Article) ([1]; 1 μM test article)
0.004 µM | 56% | CC(C)C[C@H](NC(=O)[C@H](CO)NC(=O)[C@H](CO)NC(=O)[C@H](CCCNC(=N)N)NC(=O)[C@@H](C)NC(=O)[C@H](CO)NC(=O)[C@H](Cc1c[nH]cn1)NC(=O)[C@H](Cc1c[nH]cn1)NC(=O)[C@H](Cc1ccccc1)NC(=O)[C@H](CCCNC(=N)N)NC(=O)[C@H](CCC(=O)O)NC(=O)[C@@H](N)CC(C)C)C(=O)N[C@@H](CCCNC(=N)N)C(=O)N1CCC[C@H]1C(=O)N[C@@H](Cc1ccc(O)cc1)C(=O)N[C@H](C(=O)N[C@@H](CCCCN)C(=O)O)[C@@H](C)O [compound 55] (H-LERFHHS[dA]RSSLRPYTK-OH; N-terminus and C-terminus assumed) | 16% | 72%
0.004 µM | 12% | CC(C)C[C@H](NC(=O)[C@H](CO)NC(=O)[C@H](CO)NC(=O)[C@H](CCCNC(=N)N)NC(=O)[C@@H](NC(=O)[C@H](CO)NC(=O)[C@H](Cc1c[nH]cn1)NC(=O)[C@H](Cc1c[nH]cn1)NC(=O)[C@H](Cc1ccc(O)cc1)NC(=O)[C@H](CCCNC(=N)N)NC(=O)[C@H](CCCNC(=N)N)NC(=O)[C@@H](N)CC(C)C)C(C)C)C(=O)O [compound 28] (H-LRRYHHSVRSSL-OH; N-terminus and C-terminus assumed) |  | 
0.008 µM | −10% | CC(C)C[C@H](NC(=O)[C@H](CO)NC(=O)[C@H](CO)NC(=O)[C@H](CCCNC(=N)N)NC(=O)[C@@H](C)NC(=O)[C@H](CO)NC(=O)[C@H](Cc1c[nH]cn1)NC(=O)[C@H](Cc1c[nH]cn1)NC(=O)[C@H](Cc1ccc(O)cc1)NC(=O)[C@H](CCCNC(=N)N)NC(=O)[C@H](CCCNC(=N)N)NC(=O)[C@@H](N)CC(C)C)C(=O)N[C@@H](CCCNC(=N)N)C(=O)N1CCC[C@H]1C(=O)N[C@@H](Cc1ccc(O)cc1)C(=O)N[C@H](C(=O)N[C@@H](CCCCN)C(=O)O)[C@@H](C)O [compound 6] (H-LRRYHHS[dA]RSSLRPYTK-OH; N-terminus and C-terminus assumed) |  | 
0.011 µM | 5% | CC(C)C[C@H](NC(=O)[C@H](CO)NC(=O)[C@H](CO)NC(=O)[C@H](CCCNC(=N)N)NC(=O)[C@@H](NC(=O)[C@H](CO)NC(=O)[C@H](Cc1c[nH]cn1)NC(=O)[C@H](CCC(N)=O)NC(=O)[C@H](Cc1ccc(O)cc1)NC(=O)[C@H](CCCNC(=N)N)NC(=O)[C@H](CCCNC(=N)N)NC(=O)[C@@H](N)CC(C)C)C(C)C)C(=O)N[C@@H](CCCNC(=N)N)C(=O)N1CCC[C@H]1C(=O)N[C@@H](Cc1ccc(O)cc1)C(=O)N[C@H](C(=O)N[C@@H](CCCCN)C(=O)O)[C@@H](C)O [compound 47] (H-LRRYQHSVRSSLRPYTK-OH; N-terminus and C-terminus assumed) |  | 
0.004 µM | −2% | CC(C)C[C@H](NC(=O)[C@H](CO)NC(=O)[C@H](CO)NC(=O)[C@H](CCCNC(=N)N)NC(=O)[C@@H](NC(=O)[C@H](CO)NC(=O)[C@H](Cc1c[nH]cn1)NC(=O)[C@H](CC(N)=O)NC(=O)[C@H](Cc1ccc(O)cc1)NC(=O)[C@H](CCCNC(=N)N)NC(=O)[C@H](CCCNC(=N)N)NC(=O)[C@@H](N)CC(C)C)C(C)C)C(=O)N[C@@H](CCCNC(=N)N)C(=O)N1CCC[C@H]1C(=O)N[C@@H](Cc1ccc(O)cc1)C(=O)N[C@H](C(=O)N[C@@H](CCCCN)C(=O)O)[C@@H](C)O [compound 41] (H-LRRYNHSVRSSLRPYTK-OH; N-terminus and C-terminus assumed) |  | 
